Some test systems named below: HT-29; BT-549; RXF 393; SK-MEL-28; KM12; NCI-H460; T47D; HOP-62; OVCAR-8; SW-620; SK-MEL-2; RPMI-8226; SNB-75; Malme-3M; SNB-19; MDA-MB-435; SF-539; EKVX; SF-268; HL-60.
Experiment in all cases: DTP human tumour cell line panel, 48 h

Each structure is given as a SMILES string.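 Test compounds were applied to cells in 96-well plates for 48 hours at 5 doses. At the GI50, growth is halved.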 Activity calls are given as the source filed them. No stated cut-off is given here; in the data, active = GI50 up to about 1.1 µM and inactive = higher.

Take `C[N+]1(CC[N+]2(C)CCCC2c2cccnc2)CCCC1c1cccnc1` (stereo unspecified): the GI50 was 50.6 µM (inactive) in the test on HT-29; > 100 µM (inactive) with BT-549; > 100 µM (inactive) in the test on RXF 393; 61.8 µM (inactive) in the test on SK-MEL-28; > 100 µM (inactive) in the test on KM12; > 100 µM (inactive) in the test with NCI-H460. For the same molecule, the GI50 was 42.4 µM (inactive) in the test on T47D; > 100 µM (inactive) in the test on HOP-62; > 100 µM (inactive) in the test with OVCAR-8; > 100 µM (inactive) with SW-620; > 100 µM (inactive) in the test on SK-MEL-2; 97.7 µM (inactive) in the test on RPMI-8226. The GI50 was > 100 µM (inactive) in the test on SNB-75; 59.3 µM (inactive) in the test on Malme-3M; > 100 µM (inactive) with SNB-19; 33.2 µM (inactive) with MDA-MB-435; > 100 µM (inactive) in the test on SF-539; 18.7 µM (inactive) in the test on EKVX. The GI50 with SF-268 is > 100 µM (inactive).
Turning to `CC1OC(OC2C(OC3CCC4(C)C(CCC5(C)C4CC=C4C6CC(C)(C)CCC6(C(=O)O)CCC45C)C3(C)CO)OCC(O)C2O)C(O)C(O)C1O` (stereo unspecified), the GI50 with HT-29 was 15.5 µM (inactive); with BT-549, 16.7 µM (inactive); with RXF 393, 2.72 µM (inactive); in the test on SK-MEL-28, 6.37 µM (inactive); in the test with KM12 it was 7.1 µM (inactive); in the test with NCI-H460, 19 µM (inactive). The GI50 is 22.1 µM (inactive) in the test with T47D; 29.6 µM (inactive) with HOP-62; 20.3 µM (inactive) in the test on OVCAR-8; 11.7 µM (inactive) with SW-620; 17.7 µM (inactive) with SK-MEL-2; 14.2 µM (inactive) in the test on SNB-75. The GI50 in the test with Malme-3M was 19.3 µM (inactive); in the test on SNB-19 it was 15.8 µM (inactive); in the test on MDA-MB-435 it was 18.7 µM (inactive); in the test on SF-539, 15.5 µM (inactive); with EKVX, 20.4 µM (inactive); with SF-268, 17.1 µM (inactive).
Turning to `CNS(=O)(=O)c1ccc2c(c1)/C(=C1/Nc3ccccc3C1=O)C(=O)N2`, the GI50 with HT-29 is > 100 µM (inactive); in the test with BT-549 it was 66.4 µM (inactive); with RXF 393, > 100 µM (inactive); with SK-MEL-28 it was > 100 µM (inactive); with HL-60, 14.6 µM (inactive); with NCI-H460, > 100 µM (inactive). Besides, the GI50 in the test with T47D, in the test on HOP-62, in the test on SW-620, in the test on SK-MEL-2, in the test with RPMI-8226 and with SNB-75 was > 100 µM (inactive) each time. In addition, the GI50 with Malme-3M is > 100 µM (inactive); with SNB-19, 20.9 µM (inactive); with MDA-MB-435, > 100 µM (inactive); in the test on EKVX, > 100 µM (inactive); in the test with SF-268, > 100 µM (inactive).
On to `COc1cc(/C=C2/C[C@H]3[C@@H]4CC=C5C[C@@H](O)CC[C@]5(C)[C@H]4CC[C@]3(C)NC2=O)cc(OC)c1OC`, for which the GI50 with HT-29 is 24 µM (inactive); with BT-549 it was 15.2 µM (inactive); with RXF 393, 16 µM (inactive); with SK-MEL-28, 29.2 µM (inactive); in the test on HL-60, 0.405 µM (active); in the test on KM12, 30.9 µM (inactive). Moreover, the GI50 in the test with NCI-H460 was 11.8 µM (inactive); in the test on T47D, 24.2 µM (inactive); in the test with HOP-62 it was 23.1 µM (inactive); in the test with OVCAR-8, 18.9 µM (inactive); in the test on SW-620, > 73.8 µM (inactive); with SK-MEL-2, 22 µM (inactive). The GI50 in the test on RPMI-8226 was 5.46 µM (inactive); in the test on Malme-3M it was 13.3 µM (inactive); with SNB-19, 20.1 µM (inactive); in the test on MDA-MB-435 it was 20.7 µM (inactive); with SF-539 it was 30.7 µM (inactive); in the test with EKVX, 15.1 µM (inactive). For the same molecule, the GI50 in the test with SF-268 is 9.12 µM (inactive).
For `C/C(=N\N=C(N)N)c1c(C(=O)OCCCCCCOC(=O)c2nc3sccn3c2/C(C)=N/N=C(N)N)nc2sccn12`, the GI50 in the test with HT-29 was > 100 µM (inactive); in the test on BT-549 it was > 100 µM (inactive); with RXF 393, > 100 µM (inactive); in the test on SK-MEL-28, > 100 µM (inactive); in the test on HL-60, 32.1 µM (inactive); in the test with KM12, > 100 µM (inactive). Moreover, the GI50 with NCI-H460 is > 100 µM (inactive); in the test on T47D it was 16.2 µM (inactive); in the test on OVCAR-8, 42.9 µM (inactive); in the test with SW-620 it was > 100 µM (inactive); with SK-MEL-2, > 100 µM (inactive); in the test with RPMI-8226, 85.3 µM (inactive). For the same molecule, the GI50 with SNB-75 is 44.7 µM (inactive); in the test on Malme-3M, 43.4 µM (inactive); in the test with SNB-19, 63.8 µM (inactive); with MDA-MB-435, > 100 µM (inactive); with EKVX it was > 100 µM (inactive); in the test on SF-268, 49.1 µM (inactive).
For the molecule `Cc1ccc2c3c1O[C@H]1c4nc5ccccc5cc4C[C@@]4(O)[C@@H](C2)N(CC2CC2)CC[C@]314`, the GI50 with HT-29 was 3.31 µM (inactive); in the test on BT-549 it was 11.2 µM (inactive); with RXF 393, 8 µM (inactive); in the test with SK-MEL-28, 19.6 µM (inactive); in the test on HL-60, 9.23 µM (inactive); in the test with KM12, 11.1 µM (inactive). Besides, the GI50 in the test on NCI-H460 is 20 µM (inactive); in the test on T47D it was 15.8 µM (inactive); with HOP-62 it was 12.1 µM (inactive); with OVCAR-8, 10.7 µM (inactive); in the test on SW-620 it was 4.29 µM (inactive); in the test with SK-MEL-2 it was 18.5 µM (inactive). Besides, the GI50 in the test on RPMI-8226 is 4.63 µM (inactive); in the test on Malme-3M, 14.5 µM (inactive); in the test with SNB-19, 12.8 µM (inactive); with MDA-MB-435 it was 11.4 µM (inactive); in the test with SF-539, 4.68 µM (inactive); with EKVX, 15.1 µM (inactive). Also, the GI50 in the test with SF-268 was 7.03 µM (inactive).
For `N#CC(=C1CCCCC1)c1nc2ccccc2o1`, the GI50 is 61.5 µM (inactive) in the test on HT-29; 32.1 µM (inactive) with BT-549; > 100 µM (inactive) with RXF 393; > 100 µM (inactive) in the test with SK-MEL-28; 35.2 µM (inactive) in the test on HL-60; 32 µM (inactive) in the test on KM12. For the same molecule, the GI50 in the test on NCI-H460 is > 100 µM (inactive); in the test on T47D, 19.4 µM (inactive); with HOP-62 it was > 100 µM (inactive); in the test with OVCAR-8, 47.4 µM (inactive); with SK-MEL-2, > 100 µM (inactive); in the test on RPMI-8226, 25.9 µM (inactive). Moreover, the GI50 is > 100 µM (inactive) in the test on Malme-3M; > 100 µM (inactive) in the test with SNB-19; > 100 µM (inactive) in the test with MDA-MB-435; 31.7 µM (inactive) in the test with SF-539; 34.5 µM (inactive) in the test with EKVX; 55.2 µM (inactive) in the test on SF-268.
On to `C(=N\c1cc2cc(Sc3ccccc3)ccc2[nH]1)/c1ccccc1`, for which the GI50 is > 12.5 µM (inactive) in the test with HT-29; > 12.5 µM (inactive) in the test on BT-549; > 12.5 µM (inactive) in the test with RXF 393; > 12.5 µM (inactive) with SK-MEL-28; > 12.5 µM (inactive) in the test on HL-60; 0.0931 µM (active) in the test on KM12. The GI50 is > 12.5 µM (inactive) in the test with T47D; 2.08 µM (inactive) with HOP-62; > 12.5 µM (inactive) with OVCAR-8; > 12.5 µM (inactive) in the test with SW-620; > 12.5 µM (inactive) in the test with RPMI-8226; > 12.5 µM (inactive) in the test with SNB-75. Moreover, the GI50 in the test with Malme-3M is > 12.5 µM (inactive); in the test with SNB-19, > 12.5 µM (inactive); in the test on MDA-MB-435 it was 4.28 µM (inactive); with SF-539 it was 0.741 µM (active); with EKVX, > 12.5 µM (inactive); in the test on SF-268, > 12.5 µM (inactive).
Consider `Clc1ccc(CSC2=NCCN2)cc1Cl`, for which the GI50 is 14.2 µM (inactive) with HT-29; 18.8 µM (inactive) in the test on BT-549; 14.2 µM (inactive) in the test with RXF 393; 18.7 µM (inactive) with SK-MEL-28; 10.9 µM (inactive) with HL-60; 16.9 µM (inactive) in the test with KM12. Further, the GI50 in the test with NCI-H460 is 16.1 µM (inactive); with T47D, 7.19 µM (inactive); in the test with HOP-62, 23.4 µM (inactive); with OVCAR-8, 15.9 µM (inactive); in the test with SW-620, 16.2 µM (inactive); in the test with RPMI-8226 it was 6.75 µM (inactive). Further, the GI50 in the test with Malme-3M is 13 µM (inactive); in the test on SNB-19 it was 32.3 µM (inactive); with MDA-MB-435, 16 µM (inactive); in the test with EKVX, 8.89 µM (inactive); in the test on SF-268, 14.9 µM (inactive).
Regarding `COc1ccc(C2=Nc3cc(C)c(C)cc3NC(c3ccccc3)C2)cc1` (stereo unspecified), the GI50 was 20.1 µM (inactive) in the test on HT-29; > 100 µM (inactive) in the test on BT-549; > 100 µM (inactive) in the test with RXF 393; > 100 µM (inactive) with SK-MEL-28; 18.7 µM (inactive) with HL-60; > 100 µM (inactive) in the test on KM12. Also, the GI50 with NCI-H460 was 46.2 µM (inactive); in the test on T47D, 21.7 µM (inactive); with HOP-62 it was > 100 µM (inactive); with OVCAR-8, > 100 µM (inactive); with SW-620, > 100 µM (inactive); in the test on SK-MEL-2 it was > 100 µM (inactive). Moreover, the GI50 with RPMI-8226 was 15.9 µM (inactive); with Malme-3M, 40.5 µM (inactive); in the test with SNB-19 it was > 100 µM (inactive); with MDA-MB-435 it was 50.2 µM (inactive); in the test on SF-539, > 100 µM (inactive); in the test with EKVX, > 100 µM (inactive). Moreover, the GI50 with SF-268 was > 100 µM (inactive).
`Oc1ccccc1C(Sc1nc2ccccc2s1)Sc1nc2ccccc2s1`: the GI50 in the test on HT-29 was > 100 µM (inactive); in the test on BT-549 it was 56.4 µM (inactive); with RXF 393, > 100 µM (inactive); with SK-MEL-28, > 100 µM (inactive); with HL-60, 37.1 µM (inactive); in the test on KM12, 89.1 µM (inactive). In addition, the GI50 is > 100 µM (inactive) in the test with NCI-H460; 19.3 µM (inactive) in the test with T47D; > 100 µM (inactive) in the test with HOP-62; 85.3 µM (inactive) in the test with OVCAR-8; > 100 µM (inactive) with SW-620; > 100 µM (inactive) in the test on SK-MEL-2. The GI50 in the test with RPMI-8226 is 32.6 µM (inactive); in the test with SNB-75, > 100 µM (inactive); in the test on Malme-3M it was 28.4 µM (inactive); in the test with SNB-19 it was 64.6 µM (inactive); in the test on MDA-MB-435, 73.5 µM (inactive); with EKVX, 23.4 µM (inactive). Also, in the test on SF-268, the GI50 is 71.6 µM (inactive).

The record behind these values is ChEMBL document CHEMBL1201862, “PubChem BioAssay data set” (2004).
